Results reported in patent US20250084087A1, “BICYCLIC HETEROCYCLES AS MRGPRX2 ANTAGONISTS” (Incyte Corporation, priority 2023, published 2025).

Experiments:
Assay type in all cases: cell-based
MRGPRX2 [1] = target: T1, MRGPRX2 (Homo sapiens, UniProt Q96LB1); experiment: MRGPRX2 FLIPR calcium mobilization assay; parameters: host or cells: CHO-K1; conditions: CHO-K1 cells stably expressing human MRGPRX2; Ca2+ release; agonist Cortistatin-14 at EC80
T1 sequence (Q96LB1 1-330): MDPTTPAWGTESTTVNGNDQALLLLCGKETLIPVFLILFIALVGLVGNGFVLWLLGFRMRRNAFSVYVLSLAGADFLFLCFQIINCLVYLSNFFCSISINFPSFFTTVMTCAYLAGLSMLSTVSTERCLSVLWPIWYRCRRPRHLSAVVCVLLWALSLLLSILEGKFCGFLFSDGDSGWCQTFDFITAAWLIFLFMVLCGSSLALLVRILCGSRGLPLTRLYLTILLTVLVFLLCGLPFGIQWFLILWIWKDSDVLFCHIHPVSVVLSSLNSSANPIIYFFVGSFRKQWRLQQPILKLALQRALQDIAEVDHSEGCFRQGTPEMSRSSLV
Description: Example A. MRGPRX2 FLIPR Calcium Mobilization Assay
Chinese hamster ovary (CHO-K1) cells stably expressing human MRGPRX2 were purchased from Genescript (Piscataway, NJ). The cells were maintained in culture medium (Ham's F-12K) containing 10% (v/v) FBS, 200 μg/mL Zeocin, 100 units/mL penicillin G and 100 μg/mL streptomycin (Life Technologies, Carlsbad, CA). For the assay, the cells were harvested and resuspended with culture medium without Zeocin before plating at 8000 cells per well in 20 μL in 384-well black clear bottom cell culture plates (VWR, Radnor, PA). After 24 hour culture at 37° C. and 5% CO2, the cells were loaded with 20 μL/well of calcium dye (FLIPR Calcium 6 Assay Kit, Molecular Devices, San Jose, CA) diluted in loading buffer (1× Hank's Balanced Salt Solution (HBSS), 5 mM probenecid, 20 mM 4-(2-hydroxyethyl)-1-piperazineethanesulfonic acid (HEPES), pH 7.4, VWR, Radnor, PA) followed with 45 min. incubation at 37° C. and 40 min. at r.t. in the dark. Cells were then treated with the addition of 10 uL/well test compounds with a range of increasing concentrations diluted in the assay buffer (1×HBSS, 20 mM HEPES, pH 7.4, VWR, Radnor, PA) with FLIPR Penta (Molecular Devices. San Jose, CA) and incubated for 30 min. at r.t. Ca^2+ release was measured with FLIPR Penta with 10 seconds basal fluorescence measurement, then 12.5 μL of 5× agonist Cortistatin-14 (Tocris, Minneapolis, MN) at final concentration corresponding to the EC80 were added followed with continued fluorescence signal monitoring for an additional 110 seconds. The base line adjusted (median of first 10s base line) max value of the Relative Fluorescence Unit (RFU) was plotted against compound concentrations. Wells with no compound were served as the positive controls, and wells with high concentration of reference antagonist were used as negative controls. IC50 curves were globally fitted with 3- or 4-parameter Hill equation in a Genedata Screener (Genedata Basel, Switzerland).

MRGPRX2 [2] = target: T1, MRGPRX2; experiment: MRGPRX2 IP1 HTRF assay; parameters: host or cells: CHO-K1; conditions: CHO-K1 cells stably expressing human MRGPRX2; IP1 accumulation; agonist Cortistatin 14 1 μM
How it was run: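 CHO-K1 cells stably expressing human MRGPRX2, preincubated with compound 1 h at 37 °C, then stimulated with 1 μM Cortistatin 14 for 1 h. IP1 measured by HTRF against standard curve, normalized to DMSO and reference antagonist controls; IC50 from 3- or 4-parameter Hill fit.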

MRGPRX2 [3] = target: T1, MRGPRX2; experiment: MRGPRX2 β-Arrestin recruitment assay (PathHunter); parameters: host or cells: CHO-K1 (PathHunter); conditions: PathHunter CHO-K1 MRGPRX2 β-Arrestin cell line; agonist Cortistatin 14 0.25 μM
How it was run: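 CHO-K1 PathHunter cells co-expressing ProLink-tagged MRGPRX2 and enzyme-acceptor-tagged β-arrestin were preincubated with compound 1 h at 37° C., then stimulated with cortistatin-14 (0.25 μM final) for 90 min. Enzyme-complementation luminescence read after 1 h detection; data normalized to DMSO and reference antagonist, IC50 from 3- or 4-parameter Hill fit.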

SMILES | IC50 (MRGPRX2 [1]) [nM] | IC50 (MRGPRX2 [2]) [nM] | IC50 (MRGPRX2 [3]) [nM]
O=C(CN1CCC1)N1CCC(CNc2cc(C(F)(F)F)nc3cc(Br)nn23)(c2ccc(F)cc2)CC1 [Example 60, 2-(Azetidin-1-yl)-1-(4-(((2-bromo-5-(trifluoromethyl)pyrazolo[1,5-a]pyrimidin-7-yl)amino)methyl)-4-(4-fluorophenyl)piperidin-1-yl)ethan-1-one] | 0.1 to 100 | – | 0.1 to 100
O=C(NC1CC1)N1CC(CNc2cc(C(F)(F)F)nc3cc(C(F)F)nn23)(c2ccc(F)cc2)C1 [Example 63, N-Cyclopropyl-3-(((2-(difluoromethyl)-5-(trifluoromethyl)pyrazolo[1,5-a]pyrimidin-7-yl)amino)methyl)-3-(4-fluorophenyl)azetidine-1-carboxamide] | 0.1 to 100 | – | 0.1 to 100
N#CCCNC1CCC(CNc2cc(C(F)(F)F)nc3cc(Br)nn23)(c2ccccc2)CC1 (stereo not drawn) [Example 81, 3-((4-(((2-Bromo-5-(trifluoromethyl)pyrazolo[1,5-a]pyrimidin-7-yl)amino)methyl)-4-phenylcyclohexyl)amino)propanenitrile] | 0.1 to 100 | – | 0.1 to 100
FC(F)(F)c1cc(NCC2(c3ccccc3)CC=CC2)n2nc(Br)cc2n1 [Example 82, 2-Bromo-N-((1-phenylcyclopent-3-en-1-yl)methyl)-5-(trifluoromethyl)pyrazolo[1,5-a]pyrimidin-7-amine] | 0.1 to 100 | – | 0.1 to 100
CNC1CCC(CNc2cc(C(F)(F)F)nc3cc(Br)nn23)(c2ccccc2)CC1 (stereo not drawn) [Example 83, 2-Bromo-N-((4-(methylamino)-1-phenylcyclohexyl)methyl)-5-(trifluoromethyl)pyrazolo[1,5-a]pyrimidin-7-amine] | 0.1 to 100 | – | 0.1 to 100
CC(=O)N(C)C1CCC(CNc2cc(C(F)(F)F)nc3cc(Br)nn23)(c2ccccc2)CC1 (stereo not drawn) [Example 85, N-(4-(((2-Bromo-5-(trifluoromethyl)pyrazolo[1,5-a]pyrimidin-7-yl)amino)methyl)-4-phenylcyclohexyl)-N-methylacetamide] | 0.1 to 100 | – | 0.1 to 100

Second part, the molecule after the results:

IC50 (MRGPRX2 [1]) [nM] | IC50 (MRGPRX2 [2]) [nM] | IC50 (MRGPRX2 [3]) [nM] | SMILES
0.1 to 100 | 0.1 to 100 | – | NS(=O)(=O)N1CCC(CNc2nc(Cl)cc3nc(C(F)(F)F)cn23)(c2ccccc2)CC1 [Example 5, 4-(((7-Chloro-2-(trifluoromethyl)imidazo[1,2-c]pyrimidin-5-yl)amino)methyl)-4-phenylpiperidine-1-sulfonamide]
0.1 to 100 | 100 to 1000 | – | Cc1cc(NCC2(c3ccccc3)CCN(C(N)=O)CC2)n2nc(C(F)(F)F)nc2n1 [Example 7, 4-(((5-Methyl-2-(trifluoromethyl)-[1,2,4]triazolo[1,5-a]pyrimidin-7-yl)amino)methyl)-4-phenylpiperidine-1-carboxamide]
0.1 to 100 | 0.1 to 100 | – | NC(=O)N1CC(CNc2cc(C(F)(F)F)nc3cc(C(F)(F)F)nn23)(n2cc(F)cn2)C1 [Example 10, 3-(((2,5-Bis(trifluoromethyl)pyrazolo[1,5-a]pyrimidin-7-yl)amino)methyl)-3-(4-fluoro-1H-pyrazol-1-yl)azetidine-1-carboxamide]
0.1 to 100 | 0.1 to 100 | – | NS(=O)(=O)N1CC(CNc2cccc3nc(C(F)(F)F)nn23)(n2cc(F)cn2)C1 [Example 11, 3-(4-Fluoro-1H-pyrazol-1-yl)-3-(((2-(trifluoromethyl)-[1,2,4]triazolo[1,5-a]pyridin-5-yl)amino)methyl)azetidine-1-sulfonamide]
0.1 to 100 | 100 to 1000 | – | NC(=O)N1CC(CNc2cccc3nc(C(F)(F)F)nn23)(n2cc(F)cn2)C1 [Example 12, 3-(4-Fluoro-1H-pyrazol-1-yl)-3-(((2-(trifluoromethyl)-[1,2,4]triazolo[1,5-a]pyridin-5-yl)amino)methyl)azetidine-1-carboxamide]
0.1 to 100 | – | 0.1 to 100 | CN1CC[C@@H]1C(=O)N1CCC(CNc2cc(C(F)(F)F)nc3cc(C(F)(F)F)nn23)(c2ccc(F)cc2)CC1 [Example 50, (R)-(4-(((2,5-Bis(trifluoromethyl)pyrazolo[1,5-a]pyrimidin-7-yl)amino)methyl)-4-(4-fluorophenyl)piperidin-1-yl)(1-methylazetidin-2-yl)methanone]
